{
  "source": "patent US7009036B2",
  "about": "“Peptide inhibiting platelet derived growth factor (PDGF-BB) and fibroblast growth factor (bFGF) activity” (Provincia Italiana Della Congregazione Dei Figli …, priority 2001, dated 2006)",
  "key": {"[1]": {"test_system": "primary rat aorta smooth muscle cells (RASMC)", "experiment": "Proliferation assay, RASMC", "type": "cell-based", "details": "0.1% BSA alone, no growth factor; any time", "procedure": "(§1) This test was carried out on Primary rat aorta smooth muscle cells (RASMC) obtained from six-month old male Wistar rats following a well known technique (Sterpetti, A. V. et al., 1992, J. Vasc. Surg., 6, 16–20); primary bovine aortic endothelial cells (BAEC) were obtained according to previously described protocols (D'Arcangelo, D. et al., 2000, Circ.Res., 86, 312–318).\n(§2) Proliferation assay was carried out on primary rat aorta SMC and on primary bovine aortic endothelial cells (BAEC). Cells were plated in six-well plates (1×10^5 cells/plate) and grown for 24 hours in Dulbecco Modified eagle's medium (DMEM) supplemented with 10% FBS, at 37° C. in 5% CO2. Then, the medium was replaced with DMEM medium containing 0.1% BSA for 24 hours. Subsequently, the medium was replaced with fresh medium containing either 0.1% BSA alone or 0.1% BSA with growth factors at 10 ng/ml final concentration or fetal calf serum (FCS) al 10%, in the absence or in the presence of PEP1 or control peptide. Each assay was carried out for mounting period of time up to a maximum time of three days and the cell were harvested and counted with hemacytometer."}, "[2]": {"test_system": "primary bovine aortic endothelial cells (BAEC)", "experiment": "Proliferation assay, BAEC", "type": "cell-based", "details": "0.1% BSA alone, no growth factor; any time", "procedure": "as §1, §2"}},
  "note": "Ends that are not written are not given here.",
  "data": [
    {"sequence": "DPHIKLQLQAE [PEP1, Asp-Pro-His-Ile-Lys-Leu-Gln-Leu-Gln-Ala-Glu]", "values": [
      {"measurement": "effect on spontaneous proliferation (toxicity per se), RASMC", "setting": "[1]", "value": "not significantly affected"},
      {"measurement": "effect on spontaneous proliferation (toxicity per se), BAEC", "setting": "[2]", "value": "not significantly affected"}
    ]}
  ]
}
